What all share (format): cell-based
The subject of experiment [1] is ECV-304 (endothelial) cell line. Nature of the experiment: three day MTT cytotoxicity assay, ECV-304 endothelial. Conditions: ECV-304 endothelial cells, 72 hours. As for the experimental part: (§1) A number of the Flavopereirine derivatives were tested for cytotoxicity against nine (9) human tumor cell lines. Briefly, a three day MTT cytotoxicity assay was performed, which is based on the principle of uptake of MTT (3-(4,5-dimethylthiazol-2-yl)-2,5-diphenyl tetrazolium bromide), a tetrazolium salt, by the metabolically active cells where it is metabolized by active mitochondria into a blue colored formazan product that is read spectrophotometrically. MIT was dissolved in phosphate buffered saline with a pH of 7.4 to obtain an MTT concentration of 5 mg/ml; the resulting mixture was filtered through a 0.22-micron filter to sterilize and remove a small amount of insoluble residue. For each type of tumor cell, 10000 to 15000 cells were seeded in a 96-well culture plate and incubated with the individual Flavopereirine derivatives in concentration ranging from 1-20 μg/ml in a CO2 incubator for a total of 72 hours. Control cells not treated with the Flavopereirine derivatives were similarly incubated. The assay was terminated by adding 100 μg (20 μl) of MTT to each well, then incubating for additional one hour, and finally adding 50 μl of 10% SDS-0.01N HCl to each well to lyse the cells and dissolve formazan. After incubating for one hour, the plate was read spectrophotometrically at 540 nm and the percentage of cytotoxicity calculated using the following formula:
(§2) Cytotoxicity percentage=100×[1-(X/R1)], where X=(absorbance of treated sample at 540 nm)−(absorbance of blank at 540 nm) R1=absorbance of control sample at 540 nm.
(§3) The IC50 Values of the cytotoxicity defined as the concentration at which 50% of the cells are killed in vitro was calculated for each cell line treated with each of the Flavopereirine derivatives.

Experiment [2] relates to KB (oral cavity) human tumor cell line. The experiment is described as follows: three day MTT cytotoxicity assay, KB oral. Particulars: KB oral cells, 72 hours. As for the experimental part: as §1, §2, §3
(§4) The cell lines are ovary (PA-1), breast (MCF-7), prostate (DU145), pancreas (MiaPaCa.2), oral cavity (KB), lung (L132), colon (SW620), and larynx (HeP2).

Experiment [3] deals with Hep2 (larynx) human tumor cell line. The experiment is described as follows: three day MTT cytotoxicity assay, Hep2 larynx. Conditions: Hep2 larynx cells, 72 hours. As for the experimental part:
as §1, §2, §3, §4

Experiment [4] deals with DU145 (prostate) human tumor cell line. The experiment is described as follows: three day MTT cytotoxicity assay, DU145 prostate. Conditions: DU145 prostate cells, 72 hours. As for the experimental part: as §1, §2, §3, §4
For experiment [5], the system named is MiaPaca2 (pancreas) human tumor cell line. The experiment is described as follows: three day MTT cytotoxicity assay, MiaPaca2 pancreas. Conditions: MiaPaca2 pancreas cells, 72 hours. How it is done: as §1, §2, §3, §4
In experiment [6] the test system is PA1 (ovary) human tumor cell line. Nature of the experiment: three day MTT cytotoxicity assay, PA1 ovarian. Conditions: PA1 ovarian cells, 72 hours. How it is done: as §1, §2, §3, §4
The test system of experiment [7] is MCF7 (breast) human tumor cell line. Nature of the experiment: three day MTT cytotoxicity assay, MCF7 breast. Particulars: MCF7 breast cells, 72 hours. How it is done: as §1, §2, §3, §4
Experiment [8] deals with SW620 (colon) human tumor cell line. Nature of the experiment: three day MTT cytotoxicity assay, SW620 colon. Conditions: SW620 colon cells, 72 hours. As for the experimental part: as §1, §2, §3, §4
Experiment [9] concerns L132 (lung) human tumor cell line. Nature of the experiment: three day MTT cytotoxicity assay, L132 lung. Conditions: L132 lung cells, 72 hours. As for the experimental part: as §1, §2, §3, §4

Consider 2 compounds from US20100256177A1, “Flavopereirine derivatives for cancer therapy” (priority 2004, published 2010).

For `[Br-].c1ccc(COc2ccc3c4[nH]c5ccccc5c4cc[n+]3c2)cc1` [Compound 31], the “IC50 (μg/mL) of Flavoperereine derivatives in human tumor cell lines, ECV-304 Endothelial” value in experiment [1] was found to be 13.5 µg/mL. For the same compound, in experiment [2], the “IC50 (μg/mL) of Flavoperereine derivatives in human tumor cell lines, KB Oral” value is less than 1 µg/mL. For the same compound, the “IC50 (μg/mL) of Flavoperereine derivatives in human tumor cell lines, Hep2 Larynx” value in experiment [3] was 3 µg/mL. Also, in experiment [4], the “IC50 (μg/mL) of Flavoperereine derivatives in human tumor cell lines, DU145 Prostate” value stood at 4.5 µg/mL. In addition, the “IC50 (μg/mL) of Flavoperereine derivatives in human tumor cell lines, MiaPaca2 Pancreas” value in [5] is less than 1 µg/mL. Further, the “IC50 (μg/mL) of Flavoperereine derivatives in human tumor cell lines, PA1 Ovarian” value in [6] was 4 µg/mL. Further, the “IC50 (μg/mL) of Flavoperereine derivatives in human tumor cell lines, MCF7 Breast” value in experiment [7] worked out at 4 µg/mL. Moreover, the “IC50 (μg/mL) of Flavoperereine derivatives in human tumor cell lines, SW620 Colon” value in experiment [8] was 5 µg/mL. In addition, the “IC50 (μg/mL) of Flavoperereine derivatives in human tumor cell lines, L132 Lung” value in experiment [9] was determined as 4.5 µg/mL.
Consider `Fc1ccc(COc2ccc3c4[nH]c5ccccc5c4cc[n+]3c2)cc1.[O-][Cl+3]([O-])([O-])[O-]` [Compound 32], for which the “IC50 (μg/mL) of Flavoperereine derivatives in human tumor cell lines, ECV-304 Endothelial” value in experiment [1] was determined as 24 µg/mL. Moreover, the “IC50 (μg/mL) of Flavoperereine derivatives in human tumor cell lines, KB Oral” value in experiment [2] is less than 1 µg/mL. The “IC50 (μg/mL) of Flavoperereine derivatives in human tumor cell lines, Hep2 Larynx” value in experiment [3] was determined as 4 µg/mL. In [4], the “IC50 (μg/mL) of Flavoperereine derivatives in human tumor cell lines, DU145 Prostate” value turned out to be 2 µg/mL. Moreover, the “IC50 (μg/mL) of Flavoperereine derivatives in human tumor cell lines, MiaPaca2 Pancreas” value in experiment [5] is less than 1 µg/mL. For the same compound, the “IC50 (μg/mL) of Flavoperereine derivatives in human tumor cell lines, PA1 Ovarian” value in [6] was 6 µg/mL. For the same compound, the “IC50 (μg/mL) of Flavoperereine derivatives in human tumor cell lines, MCF7 Breast” value in experiment [7] is less than 1 µg/mL. For the same compound, the “IC50 (μg/mL) of Flavoperereine derivatives in human tumor cell lines, SW620 Colon” value in experiment [8] turned out to be 5 µg/mL. For the same compound, the “IC50 (μg/mL) of Flavoperereine derivatives in human tumor cell lines, L132 Lung” value in experiment [9] is less than 1 µg/mL.
